{
  "source": "paper PMC12454639",
  "about": "“Direct disassembly of α-syn preformed fibrils into α-syn monomers by an all-D-peptide” (NPJ Parkinson's Disease, 2025)",
  "key": {"[1]": {"experiment": "CD spectroscopy of SVD-1a alone", "assay_type": "physicochemical", "conditions": "30 µM, PBS pH 7.4, 37 °C", "description": "Far-UV circular dichroism (CD) data were collected using a Jasco J-1100 spectropolarimeter (Jasco, GE). 350 µl samples were pooled and loaded into a high precision quartz cuvette with a path length of 1 mm (Hellma group, GE). A scan speed of 20 nm/min with five accumulations per sample was performed using far UV wavelengths from 260 to 190 nm. Baseline was corrected by subtracting measurements of the reference sample only.\nSupplementary Fig. 13: Analysis of the seeded aggregation assay in the presence and absence of SVD-1a using circular dichroism (CD) spectroscopy. Small α-syn PFF (500 nM) were incubated in PBS (pH 7.4) at 37 °C under quiescent conditions for 24 hours, either alone or in the presence of 15 µM α-synuclein monomer and/or 30 µM SVD-1a. For each condition and time point, three replicates (each 120 µl) were pooled and analyzed by CD spectroscopy at 0, 2, 8, and 24 hours. Far-UV ellipticity was measured in a quartz cuvette (path length = 10 mm) using a J-1100 CD spectrometer (Jasco, GE). […] (D) Co-incubation of 500 nM α-synuclein PFFs with 15 µM α-synuclein monomer induced a structural transition towards β-sheet formation, as reflected in the CD spectrum (referenced to spectrum in (A))."}, "[2]": {"test_system": "15N-labeled full-length acetyl-α-syn", "experiment": "NMR paramagnetic relaxation enhancement (PRE)", "assay_type": "binding", "conditions": "spin-labeled SVD-1a (SVD-1a_Cys_MTSL), 1:1 with α-syn, 10 °C", "description": "The spin-labeled analog of SVD-1a was prepared by covalent attachment of MTSL (S-(1-oxyl-2,2,5,5-tetramethyl-2,5-dihydro-1H-pyrrol-3-yl)methyl methanesulfonothioate, Toronto Research Chemicals, USA) to the C-terminal D-cysteine residue of SVD-1a_Cys. MTSL was dissolved in DMF (N,N-dimethylformamide) with a concentration of 20 mM and diluted in 200 mM HEPES, pH 7.6, to a final concentration of 2 mM. 900 µl of the solution was then added to 1 mg of lyophilized SVD-1a_Cys to create a fivefold molar excess of MTSL compared to SVD-1a_Cys. […]\nNMR paramagnetic relaxation enhancement (PRE) data were recorded on 25 µM ^15N-labeled full-length acetyl-α-syn in the presence of 25 µM paramagnetically labeled (but not isotopically enriched) SVD-1a_Cys_MTSL (using a MTSL spin-label covalently attached to the SVD-1a C-terminus), resulting in a 1:1 ratio of α-syn: SVD-1a. Intensities (Ipara) were extracted from 2D ^1H–^15N Best-TROSY NMR spectra recorded at 600 MHz and 10 °C, each with 128 scans per increment, resulting in a total experimental time of 16 h per spectrum. […] The diamagnetic reference spectra and intensities (Idia) were recorded back-to-back and under identical conditions as for the paramagnetic sample. […]"}},
  "note": "Square brackets hold non-standard residues; d marks the D form. Peptide text beside a SMILES is read from it.",
  "data": [
    {"smiles": "CC[C@@H](C)[C@@H](NC(=O)[C@@H](Cc1c[nH]cn1)NC(=O)[C@@H](CCC(=O)O)NC(=O)[C@@H](CCC(N)=O)NC(=O)[C@@H](Cc1c[nH]c2ccccc12)NC(=O)[C@@H](Cc1ccc(O)cc1)NC(=O)[C@H](NC(=O)[C@@H](CCC(=O)O)NC(=O)[C@@H](Cc1c[nH]cn1)NC(=O)[C@H](NC(=O)[C@H]1CCCN1C(=O)[C@@H](CC(C)C)NC(=O)[C@H](N)CCCNC(=N)N)[C@H](C)O)[C@H](C)O)C(=O)N[C@H](Cc1c[nH]c2ccccc12)C(=O)N[C@H](Cc1c[nH]cn1)C(=O)N[C@H](C)C(=O)N[C@H](CCCNC(=N)N)C(=O)N[C@H](CCCNC(=N)N)C(=O)N[C@H](CCCNC(=N)N)C(=O)N[C@H](CCCNC(=N)N)C(=O)N[C@H](CCCNC(=N)N)C(N)=O", "note": "[SVD-1a] (H-[dR][dL][dP][dT][dH][dE][dT][dY][dW][dQ][dE][dH][dI][dW][dH][dA][dR][dR][dR][dR][dR]-NH2)", "values": [
      {"measurement": "secondary structure of peptide alone (CD)", "setting": "[1]", "value": "random coil secondary structure"},
      {"measurement": "site of interaction with α-syn (PRE)", "setting": "[2]", "value": "interacts with the entire α-syn monomer, with the C-terminal part showing the strongest interaction"}
    ]}
  ]
}
